Data as given in US20140179681A1, “METHODS AND COMPOSITIONS OF TARGETED DRUG DEVELOPMENT” (priority 2010, published 2014).
Counter-ions that a name gives are not always drawn. Like-named read-outs stand apart in the source and are kept apart here.

What was measured:
EGFR = target: T1, EGFR (Homo sapiens, UniProt P00533); assay: EGFR in-cell Western (ICW) screening protocol (EGFR inhibition assay); assay type: cell-based; set-up: ICW 1 / ICW 2 / ICW Avg: unit not given here; details: for ICW Avg / ICW 1 / ICW 2: ICW assay; for ICW Avg: average of runs 1 and 2; for ICW 1: run 1; for ICW 2: run 2; for ICW Screen: Table 11, % Inhibition of EGF dependent EGFR phosphorylation in A431 cells, compound 125 μM in assay
T1 construct: host or cells: A431
T1 sequence (P00533 25-1210): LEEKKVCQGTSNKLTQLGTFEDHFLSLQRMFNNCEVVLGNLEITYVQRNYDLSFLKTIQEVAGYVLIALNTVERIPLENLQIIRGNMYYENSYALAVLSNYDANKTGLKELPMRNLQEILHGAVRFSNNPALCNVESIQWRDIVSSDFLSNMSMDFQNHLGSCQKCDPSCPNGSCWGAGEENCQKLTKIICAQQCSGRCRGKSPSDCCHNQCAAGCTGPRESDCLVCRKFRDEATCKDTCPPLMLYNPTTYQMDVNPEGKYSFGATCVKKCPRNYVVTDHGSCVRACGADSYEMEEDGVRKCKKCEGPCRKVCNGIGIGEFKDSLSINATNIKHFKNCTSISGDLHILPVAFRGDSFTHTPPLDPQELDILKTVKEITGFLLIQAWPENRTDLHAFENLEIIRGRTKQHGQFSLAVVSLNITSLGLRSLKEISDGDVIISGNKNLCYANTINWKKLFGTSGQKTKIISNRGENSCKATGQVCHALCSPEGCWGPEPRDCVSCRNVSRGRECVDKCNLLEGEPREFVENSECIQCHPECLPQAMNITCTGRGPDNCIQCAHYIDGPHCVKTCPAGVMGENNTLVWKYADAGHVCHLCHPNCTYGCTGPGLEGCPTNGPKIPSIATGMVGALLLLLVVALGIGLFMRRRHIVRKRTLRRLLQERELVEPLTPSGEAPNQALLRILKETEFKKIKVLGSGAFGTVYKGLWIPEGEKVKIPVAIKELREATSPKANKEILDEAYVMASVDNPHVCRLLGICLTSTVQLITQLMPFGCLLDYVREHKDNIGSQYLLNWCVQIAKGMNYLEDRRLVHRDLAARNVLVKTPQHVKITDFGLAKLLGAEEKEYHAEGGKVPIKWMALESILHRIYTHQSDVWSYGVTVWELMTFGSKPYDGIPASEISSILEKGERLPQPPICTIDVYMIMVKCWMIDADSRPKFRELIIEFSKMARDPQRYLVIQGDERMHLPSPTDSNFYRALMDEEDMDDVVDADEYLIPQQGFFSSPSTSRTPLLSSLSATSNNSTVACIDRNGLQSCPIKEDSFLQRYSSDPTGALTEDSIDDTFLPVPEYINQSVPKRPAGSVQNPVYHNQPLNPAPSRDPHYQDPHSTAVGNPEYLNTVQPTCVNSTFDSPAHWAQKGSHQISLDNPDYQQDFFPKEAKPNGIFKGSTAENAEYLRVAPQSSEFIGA
Method in brief: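 In-cell Western read-out: fixed A431 cells were co-stained for total EGFR and phospho-EGFR (Tyr1173; some runs Tyr1045). Before fixation, cells were serum-starved for 2 h, exposed to compound for 4 h, then given EGF for 10 min, usually at 10 ng/ml final (6.6 or 12.5 ng/ml in some runs).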

[1] = system: epithelial carcinoma A431 cell line; assay: MTT Cell Proliferation Assay, A431 cells; assay type: cell-based; details: for MTT Assay IC50(A431/MDBK): ratio in parentheses: ratio MDBK IC50 / A431 IC50 (selectivity)
Method in brief: (§1)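 Each concentration ran in quadruplicate across duplicate plates, with compounds serially diluted in DMSO and delivered at 0.5% DMSO in 0.5% FBS medium for 3 days.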

MDBK line = assay: MTT Cell Proliferation Assay, MDBK cells; assay type: cell-based, bovine
Method in brief: as §1

[2] = A431 cells, first value of cell, read-out: MTT Assay IC50(A431/MDBK): A431
[3] = MDBK cells, second value of cell, read-out: MTT Assay IC50(A431/MDBK): MDBK
[4] = Homo sapiens, A-431, A431 cells, first value of cell, read-out: MTT Assay IC50(A431/MDBK): A431
[5] = Bos taurus, MDBK, MDBK cells, second value of cell, read-out: MTT Assay IC50(A431/MDBK): MDBK
[6] = Homo sapiens, A-431, Table 11, first of x/y(ratio): A431, unit not printed (doses in μM), read-out: MTT Screen (first value)
[7] = Bos taurus, MDBK, Table 11, second of x/y(ratio): MDBK, unit not printed (doses in μM), read-out: MTT Screen (second value)
[8] = Homo sapiens, A-431, Table 11, first of x/y(ratio): A431, unit inferred, read-out: MTT Follow-up (first value)
[9] = Homo sapiens, A-431, 72 h, Table 11, first of x/y(ratio): A431, unit not printed (doses in μM), read-out: MTT Screen (first value)

Row | Compound | ICW Avg (EGFR) | ICW 1 (EGFR) | ICW 2 (EGFR) | IC50 [1, 4] [µM] | MTT Assay IC50(A431/MDBK): ratio in parentheses [1] | IC50 (MDBK line; [5]) [µM] | other results
1 | CCCc1c(C)nc(Nc2nc(C)c3cc(C)cc(C)c3n2)[nH]c1=O [12612 + TFA] | 57.36 | 69.21 | 45.51 |  |  |  | IC50 [1, 2]: 48.5 µM; IC50 (MDBK line; [3]): 79.2 µM
2 | CCCc1c(C)nc(Nc2nc(C)c3cc(C)c(C)cc3n2)[nH]c1=O [12614 + TFA] | 27.21 | 20.34 | 34.09 | 19.4 | 0.39 | 7.56 | 
3 | Cc1nc(Nc2nc(CSc3ccccn3)cc(=O)[nH]2)nc2ccccc12 [12623 + TFA] | 28.49 | 21.11 | 35.88 | 37.2 | 0.46 | 17 | 
4 | CCCc1c(C)nc(Nc2nc(C)c3cccc(C)c3n2)[nH]c1=O [12625 + TFA] | 34.27 | 30.45 | 38.10 | 21.2 | 0.80 | 17 | 
5 | Cc1ccc2nc(Nc3nc(=O)c(C)c(C)[nH]3)nc(C)c2c1 [12629 + TFA] | 25.89 | 19.83 | 31.95 | 12.7 | 0.85 | 10.7 | 
6 | Cc1cc2nc(Nc3nc(=O)c(C)c(C)[nH]3)nc(C)c2cc1C [12630 + TFA] | 26.02 | 17.06 | 34.97 | 11.7 | 0.75 | 8.75 | 
7 | COCc1cc(=O)nc(Nc2nc(C)c3cc(C)cc(C)c3n2)[nH]1 [12644 + TFA] | 25.06 | 16.45 | 33.67 |  | 0.66 |  | IC50 [1, 2]: 46.9 µM; IC50 (MDBK line; [3]): 30.9 µM
8 | Cc1cc(C)c2nc(Nc3nc(=O)c(C)c(C)[nH]3)nc(C)c2c1 [12645 + TFA] | 64.97 | 60.00 | 69.95 | 6.49 | 0.97 | 6.29 | 
9 | CCCc1cc(=O)[nH]c(Nc2nc(C)c3cc(C)c(C)cc3n2)n1 [12654 + TFA] | 36.07 | 37.92 | 34.22 |  | 0.79 | 12.6 | IC50 [1, 2]: 16 µM
10 | CCCc1c[nH]c(Nc2nc(-c3ccccc3)c3cc(Cl)ccc3n2)nc1=O [12660 + TFA] | 61.63 | 49.87 | 73.40 | 41.5 | 0.99 | 41.1 | 
11 | CCc1c(C)nc(Nc2nc(C)c3ccc(C)cc3n2)[nH]c1=O [12665 + TFA] | 44.17 | 51.06 | 37.29 |  | 0.98 |  | IC50 [1, 2]: 17.5 µM; IC50 (MDBK line; [3]): 17.2 µM
12 | Cc1ccc2nc(Nc3nc(C)c(CCC(C)C)c(=O)[nH]3)nc(C)c2c1 [12666 + TFA] | 36.77 | 48.16 | 25.37 | 14.5 | 1.18 | 17.1 | 
13 | CCCc1cc(=O)[nH]c(Nc2nc(C)c3ccc(OC)cc3n2)n1 [12669 + TFA] | 25.42 | 11.73 | 39.10 | 49.3 | 0.74 | 36.7 | 
14 | CCCc1cc(=O)[nH]c(Nc2nc(C)c3cc(C)c(C)cc3n2)n1 [12673 + TFA] | 52.80 | 44.70 | 60.90 |  | 0.68 |  | IC50 [1, 2]: 33.1 µM; IC50 (MDBK line; [3]): 22.5 µM
15 | CCc1c(C)nc(Nc2nc(C)c3ccc(C)cc3n2)[nH]c1=O [12683 + TFA] | 40.88 | 54.37 | 27.38 |  | 0.71 |  | IC50 [1, 2]: 63.4 µM; IC50 (MDBK line; [3]): 45.3 µM
16 | CCOc1ccc2nc(Nc3nc(C)c(CCC(C)C)c(=O)[nH]3)nc(C)c2c1 [12684 + TFA] | 28.28 | 40.81 | 15.75 | 25.7 | 0.76 | 19.5 | 
17 | CCOc1ccc2nc(Nc3nc(C)cc(-c4ccccc4)n3)nc(C)c2c1 [12688 + TFA] | 36.40 | 45.86 | 26.95 | 5.04 | 0.71 | 3.58 | 

Row | Compound | ICW Avg (EGFR) | ICW 1 (EGFR) | ICW 2 (EGFR) | IC50 [1, 4] [µM] | MTT Assay IC50(A431/MDBK): ratio in parentheses [1] | IC50 (MDBK line; [5]) [µM] | other results
18 | Cc1ccc2nc(Nc3nc(C)cc(-c4ccccc4)n3)nc(C)c2c1 [12689 + TFA] | 30.58 | 44.07 | 17.08 | 44.1 | 0.99 | 43.6 | 
19 | Cc1ccc2c(O)nc(Nc3nc(C)cc(-c4ccccc4)n3)nc2c1 [12693 + TFA] | 57.18 | 40.36 | 74.00 | 9.01 | 0.76 | 6.88 | 
20 | COc1cccc2c(C)nc(Nc3nc(C)c(C)c(=O)[nH]3)nc12 [12723 + TFA] | 66.62 | 67.34 | 65.91 |  | 1.07 |  | IC50 [1, 2]: 9.33 µM; IC50 (MDBK line; [3]): 9.99 µM
21 | CCOc1cccc2c(C)nc(Nc3nc(C)c(C)c(=O)[nH]3)nc12 [12735 + TFA] | 64.72 | 69.46 | 59.98 | 17.9 | 0.85 | 15.3 | 
22 | CCc1c(C)nc(Nc2nc(C)c3cccc(OC)c3n2)[nH]c1=O [12738 + TFA] | 45.35 | 53.67 | 37.02 |  | 0.54 |  | IC50 [1, 2]: 45.4 µM; IC50 (MDBK line; [3]): 24.6 µM
23 | Cc1nc(Nc2nc(CSc3ccccn3)cc(=O)[nH]2)nc2ccccc12 [12740 + TFA] | 28.34 | 28.77 | 27.91 |  | 0.48 |  | IC50 [1, 2]: 49.4 µM; IC50 (MDBK line; [3]): 23.6 µM
24 | Cc1ccc2nc(Nc3nc(C(C)C)cc(=O)[nH]3)nc(C)c2c1 [12741 + TFA] | 33.57 | 42.10 | 25.04 | 63.2 | 0.44 | 28 | 
25 | CCCCc1c(C)nc(Nc2nc(C)c3ccccc3n2)[nH]c1=O [12743 + TFA] | 25.65 | 9.17 | 42.12 |  | 1.43 |  | IC50 [1, 2]: 6.88 µM; IC50 (MDBK line; [3]): 9.86 µM
26 | CCCCc1c(C)nc(Nc2nc(C)c3ccc(C)cc3n2)[nH]c1=O [12776 + TFA] | 25.32 | 21.34 | 29.30 | 29.7 | 0.64 | 19 | 
27 | O=C(NC(=S)Nc1ccc(S(=O)(=O)NCCc2ccccc2)cc1)C1CC1 [AD4-10120] |  |  |  |  |  |  | ICW Screen (ICW Inhibition) (EGFR): 39.873; IC50 ([1]; Homo sapiens, A-431, first value of 'a/b (c)', taken as A431 cells, read-out: MTT Screen, first value of cell): 22.8 µM; IC50 (MDBK line; Bos taurus, MDBK, second value of 'a/b (c)', taken as MDBK cells, read-out: MTT Screen, second value of cell): 39.3 µM
28 | CCc1cc2c(CN3CCN(c4ccc(OC)cc4)CC3)cc(=O)oc2cc1O [AD4-10171] |  |  |  |  |  |  | ICW Screen (EGFR): 39.389; IC50 [1, 6]: 16.5 µM; IC50 (MDBK line; [7]): 21 µM
29 | Cc1cc(C)c2oc(=O)cc(CN3CCN(Cc4ccc5c(c4)OCO5)CC3)c2c1 [AD4-10174] |  |  |  |  |  |  | ICW Screen (EGFR): 45.85; IC50 [1, 8]: 4.42 µM; IC50 [1, 6]: 2.26 µM; IC50 (MDBK line; Bos taurus, MDBK, Table 11, second of x/y(ratio): MDBK, unit inferred, read-out: MTT Follow-up (second value)): 101 µM; IC50 (MDBK line; [7]): 8.58 µM
30 | O=c1cc(CN2CCN(Cc3ccc4c(c3)OCO4)CC2)c2cc3c(cc2o1)CCC3 [AD4-10179] |  |  |  |  |  |  | ICW Screen (EGFR): 34.742; IC50 [1, 9]: 13.2 µM; IC50 (MDBK line; [7]): 13.9 µM
31 | O=c1cc(CN2CCN(Cc3ccccc3)CC2)c2cc(Cl)c(O)cc2o1 [AD4-10180] |  |  |  |  |  |  | ICW Screen (EGFR): 32.1; IC50 [1, 9]: 16.7 µM; IC50 (MDBK line; [7]): 36.3 µM
32 | Cc1ccc2c(CN3CCN(Cc4ccc5c(c4)OCO5)CC3)cc(=O)oc2c1C [AD4-10181] |  |  |  |  |  |  | ICW Screen (EGFR): 34.604; IC50 [1, 9]: 2.61 µM; IC50 (MDBK line; [7]): 16 µM
33 | Cc1cc(C)c2c(CN3CCN(Cc4ccc5c(c4)OCO5)CC3)cc(=O)oc2c1 [AD4-10182] |  |  |  |  |  |  | ICW Screen (EGFR): 39.51; IC50 [1, 9]: 6.78 µM; IC50 [1, 8]: 3.75 µM; IC50 (MDBK line; [7]): 43.3 µM; MTT Follow-up (second value) (MDBK line; Table 11, second of x/y(ratio): MDBK, unit not given): non- convergent
34 | CCc1cc2c(CN3CCN(Cc4ccccc4)CC3)cc(=O)oc2cc1O [AD4-10186] |  |  |  |  |  |  | ICW Screen (EGFR): 47.518; IC50 [1, 6]: 40.1 µM; IC50 (MDBK line; [7]): 45.7 µM
